According to patent publication US7109174B2, “Anticonvulsant derivatives useful for preventing the development of type II diabetes mellitus and syndrome X” (Ortho-McNeil Pharmaceutical, Inc., priority 2000, dated 2006):

Assays:
[1] = tested on: male mice (ob/ob); experiment: Old male ob/ob mice: topiramate in food for 110 days; body weight, HbA1C, glucose, triglycerides, insulin, skin lesions; assay type: in vivo; conditions: for BG / BW / HbA1c / Insulin / Triglycerides: 110 days; for initial total incidence of skin lesions: when the study initiated (before dosing)
Procedure: Five- to seven-week old male mice (ob/ob) were purchased from The Jackson Laboratory (Bar Harbor, Me.). Upon arrival the mice were quarantined for five days and housed individually in wire mesh cages with 2-inch square “nestlets”. The mice were maintained at an ambient temperature of 21 to 23° C. on a 12 hour-12 hour light-dark schedule and given access to water and powdered chow ad libitum.
Topiramate was administered orally as a trace constituent in the food (0.143 to 2.54 mg/g). A precise quantity of topiramate was mixed thoroughly into a known amount of powdered lab chow using a mortar and pestle to grind the drug into the chow, after which the contents were placed in a 165 ounce lidded polyethylene tub and blended by shaking and rotating the tub. The lab chow (5002M Certified Diet Meal, manufactured in Brentwood, Mo. by Purina Mills, Inc.) was not less than 20% protein, 4.5% fat, and 64.5% CHO. The quantity of topiramate added to the food was based on the consumption of chow recorded during the previous three- or four-day period. The powdered food was put into stainless steel/aluminum feeders designed to prevent the mice from dispersing, spilling or contaminating the food. Mice that were able to disperse or soil the food were excluded from the study.
Thirty two-week old mice were randomly divided into three groups: (1) a control group in which no topiramate was added to the food, and (2) a group in which topiramate was added to the food in amounts sufficient to give a daily dose of 20 mg/kg for the entire 110-day dosing period, and (3) a group in which topiramate was added to the food in amounts sufficient to give a daily dose of 60 mg/kg for the entire dosing period.
The animals in each group were monitored for body weight, food consumption, blood glucose, HbA1C, insulin, triglycerides and physical signs of Type II diabetes mellitus or poor health. Body weight and food consumption were recorded twice-weekly on a Monday/Thursday or Tuesday/Friday schedule 8 to 12 hours into the light portion of the light-dark cycle. Body weight and food consumption were recorded using a scale designed for weights under 200 g. […] The mice were checked for skin lesions, and if present, the degree of severity was noted and recorded. If the general health of a mouse had deteriorated to a degree considered life threatening the mouse was euthanized.
Mice were allowed access to food containing topiramate until a few hours before being sacrificed by decapitation. Blood was collected from the neck wound into a parafilm-lined funnel. The blood was then transferred into beakers containing heparin. Plasma was separated from red blood cells by centrifugation. The plasma was frozen for subsequent analyses. Blood glucose levels, insulin and triglycerides were quantitated in the plasma. Glycated hemoglobin was also measured. The glycated hemoglobin required a 50 μl sample of whole blood, which was removed from the funnel before centrifugation. The plasma samples were then collected without freezing. All samples were packed in ice and shipped on the day blood was collected for overnight delivery to AniLytics, Inc. (200 Girard St., Suite 200, Gaithersburg, Md. 20877). The samples analyzed by AniLytics were assayed using standard procedures established by commercial laboratories that perform blood chemistry analyses. Statistical analysis was performed to determine if the data passed a test for normality (fit a Gaussian distribution). […] The data for a group of TPM-treated mice were compared to the control group.
Following the above described procedure, the effect of topiramate (TPM) on body weight (BW), glycated hemoglobin (HbA1C), blood glucose levels (BG), triglyceride and insulin levels in male ob/ob mice, were determined, with results as listed in Table 11. The abbreviation N represents the number of animals per group.

[2] = tested on: male Zucker diabetic fatty (ZDF/Gmi-Fa) rats; experiment: Plasma glucose, triglycerides and body weight change in male Zucker diabetic fatty rats, orally dosed for 14 days; assay type: in vivo; conditions: for Body Weight Change / Plasma Glucose Levels Plasma Conc. / Plasma Triglyceride Levels Plasma Conc.: ± sem
Procedure: Six week old male Zucker diabetic fatty (ZDF/Gmi-Fa) rats were purchased from Genetic Models, Inc. Indianapolis, Ind. The rats were housed in groups of four in hanging metal cages, at an ambient temperature of 68–72° F., on a 12 hour-12 hour light-dark schedule and given access to water and food ad libitum. Lean rats (ZDF/GMI−+/+or +/fa) were used as normal, non-diabetic controls. The diet was comprised of LabDiet 5008 breeding formula (PMI Nutrition Int'l, Brentwood, Mo.). The vehicle, used as a reference and for test compounds, was 0.5% methylcellulose dissolved in water. The compounds were either fully dissolved or uniformly suspended in the vehicle when administered to the […]. The rats were randomly separated into four groups of eight. The groups were as follows: one vehicle control group and three groups that each received one of three doses of TPM (30, 100, or 300 mg/kg, respectively). Topiramate or vehicle was administered orally by gavage once a day, for 14 consecutive days, during the 8th hour of the light portion of the light-dark cycle. At the start of the study, the rats were bled through a tail vein and plasma glucose and triglyceride levels were determined. Between 18 and 24 hours after the last dose was administered, blood samples were again taken via tail clip on day 1 (fed animals) and day 14 (fed animals). The plasma was collected into 2 mL heparinized snap-top polypropylene tubes, then placed in ice. Plasma was separated from blood cells by centrifugation (20 minutes at 1800 g). For samples not assayed immediately, the plasma was transferred into 96-well plates and frozen at −70° C. Body weights for the animals were determined at the start of the study and again after 14 days oral dosing. Glucose and triglycerides were assayed using standard procedures for blood clinical laboratories. Specifically, the samples were analyzed using an automated Hitachi 717 autoanalyzer (Boehringer Mannheim/Hitachi 717 Autoanalyzer, Boehringer Mannheim Laboratory Systems Division, Indianapolis, Ind.). A statistical analysis of data for the drug-treated groups compared to data for the vehicle group was performed using the one-way analysis of variance (ANOVA) with Dunnett's Multiple Comparisons test. Following the procedure described above, the effect of topiramate on plasma glucose, triglyceride levels and body weight changes was determined for male Zucker rats, orally dosed for 14 days, with results as listed in Table 6–8. The abbreviation N represents the number of animals per study group.

[3] = 30 mg/kg oral once a day, 14 days
[4] = 100 mg/kg oral once a day, 14 days
[5] = 100 mg/kg oral once a day, 14 days, P < 0.01
[6] = 300 mg/kg oral once a day, 14 days
[7] = 300 mg/kg oral once a day, 14 days, P < 0.01

CC1(C)O[C@@H]2[C@@H](CO[C@@]3(COS(N)(=O)=O)OC(C)(C)O[C@@H]23)O1 [Topiramate, 2,3:4,5-bis-O-(1-methylethylidene)-β-D-fructopyranose sulfamate]
BG ([1]; 20 mg/kg daily in food, n = 6): 229.2 ± 46.0 mg/dL
BW ([1]; 20 mg/kg daily in food, n = 6): 65.6 ± 2.8 g
HbA1c ([1]; 20 mg/kg daily in food, n = 6): 4.98 ± 0.6%
Insulin ([1]; 20 mg/kg daily in food, n = 6): 12.2 ± 1.9 ng/mL
Triglycerides ([1]; 20 mg/kg daily in food, n = 6): 104 ± 6.4 mg/dL
initial total incidence of skin lesions ([1]; 20 mg/kg group): 38%
mice died or had to be euthanized ([1]; 20 mg/kg, first 60 days of dosing): four
BW ([1]; 60 mg/kg daily in food, n = 7): 67.5 ± 1.6 g
HbA1c ([1]; 60 mg/kg daily in food, n = 7): 3.56 ± 0.4%
Insulin ([1]; 60 mg/kg daily in food, n = 7): 11.4 ± 2.1 ng/mL
Triglycerides ([1]; 60 mg/kg daily in food, n = 7): 88 ± 3.2 mg/dL
BG ([1]; 60 mg/kg daily in food, n = 7, P < 0.05): 144.3 ± 20.0 mg/dL
initial total incidence of skin lesions ([1]; 60 mg/kg group): 47%
mice died ([1]; 60 mg/kg, first 60 days of dosing): Two
total incidence of lesions versus control ([1]; 60 mg/kg/day, dosing period between 62 and 110 days): lower than in the control group
Plasma Glucose % Change from Diabetic Control [2, 3]: −24.9%
Plasma Glucose % of Diabetic Control [2, 3]: 75.1%
Plasma Triglyceride % Change from Diabetic Control [2, 3]: −20.4%
Plasma Triglyceride % of Diabetic Control [2, 3]: 79.6%
Body Weight Change [2, 3]: +95.5 ± 7.2 Gms
Plasma Glucose Levels Plasma Conc. ([2]; 30 mg/kg oral once a day, 14 days, P < 0.01): 247.4 ± 17.8 mg/dL
Plasma Triglyceride Levels Plasma Conc. ([2]; 30 mg/kg oral once a day, 14 days, P < 0.05): 482.4 ± 10.5 mg/dL
body weight change accompanying the reduction in blood glucose ([2]; 30 mg/kg/day): without significant body weight change
decrease in plasma triglyceride levels ([2]; 30 mg/kg/day, P<0.05): 20%
Plasma Glucose % Change from Diabetic Control [2, 4]: −47.5%
Plasma Glucose % of Diabetic Control [2, 4]: 52.5%
Plasma Triglyceride % Change from Diabetic Control [2, 4]: −17.7%
Plasma Triglyceride % of Diabetic Control [2, 4]: 82.3%
Plasma Triglyceride Levels Plasma Conc. [2, 4]: 498.6 ± 58.8 mg/dL
Body Weight Change [2, 5]: +75.7 ± 2.7 (P < 0.01) Gms
Plasma Glucose Levels Plasma Conc. [2, 5]: 170.3 ± 14.7 mg/dL
Plasma Glucose % Change from Diabetic Control [2, 6]: −49.5%
Plasma Glucose % of Diabetic Control [2, 6]: 50.5%
Plasma Triglyceride % Change from Diabetic Control [2, 6]: −30.2%
Plasma Triglyceride % of Diabetic Control [2, 6]: 69.8%
Body Weight Change [2, 7]: +64.4 ± 6.0 (P < 0.01) Gms
Plasma Glucose Levels Plasma Conc. [2, 7]: 166.4 ± 11.1 mg/dL
Plasma Triglyceride Levels Plasma Conc. [2, 7]: 423.0 ± 33.6 mg/dL
decrease in plasma triglyceride levels ([2]; 300 mg/kg/day, P<0.01): 30%
decrease in blood glucose levels ([2]; 30 to 300 mg/kg, 14 days, P<0.01): 25–50%
